# Assay results reported in US11731976B2, “3-(ethoxydifluoromethyl)-6-(5-fluoro-6-(2,2,2-trifluoroethoxy)pyridin-3-yl)-[1,2,4]triazolo[4,3-a]pyridine as an ion channel modulator” (Praxis Precision Medicines, Inc., priority 2018, dated 2023).
# Tests used:
# [1] = molecular target: T1, human NaV 1.2 (h NaV 1.2) (Homo sapiens, UniProt Q99250); test: Modulation of late sodium current (INaL), PatchXpress electrophysiology, HEK-293 cells expressing hNaV1.2; format: cell-based; conditions: HEK293, read-out: NaV 1.2 Assay Data: percent inhibition of INaL at hNaV1.2
# T1 construct: expressed in transfected cells; host or cells: HEK-293
# Male CD-1 mice = test: Maximal Electroshock induced Seizure (MES) assay in mice; format: in vivo, mouse; conditions: 35% HPCD, pre-treatment 30 min, recorded up to 60 seconds post stimulus
# Method: Male CD-1 mice, weighing 25-35 g were assessed in the Maximal Electroshock induced Seizure (MES) assay. Briefly, mice were dosed with compound (n=12/group) according to the dosing parameters in Table 20 and the latency to induce tonic hind limb extension following transauricular electrical stimulation (50 Hz, 50 mA, 0.8 sec duration, pulse width of 10 ins) was recorded up to 60 seconds post stimulus.
# hNaV1.1-WT = molecular target: T2, hNaV1.1-WT (Homo sapiens, UniProt P35498); test: Voltage step activated sodium current (Peak INa), PatchXpress, HEK-293; format: cell-based; conditions: percent inhibition measured at 1 μM; step to 0 mV from half-inactivation holding potential
# T2 construct: expressed in transfected cells; host or cells: HEK-293
# Method: (§1) Functional characterization of exemplary compounds to modulate INa expressed by various human isoforms and disease-causing mutant voltage-gated sodium channels was accomplished using the PatchXpress high throughput electrophysiology platform (Molecular Devices, Sunnyvale, Calif.). HEK-293 cells expressing a recombinant, human NaV1.X sodium channel (either hNaV1.6-WT, hNaV1.6-R223G, hNaV1.6-N984K, hNaV1.6-N1768D, hNaV1.1-WT, hNaV1.2-WT, hNaV1.5-WT, hNaV1.7-WT, or hNaV1.8-WT) were grown in DMEM/high-glucose Dulbecco's modified, 10% FBS, 2 mM sodium pyruvate, 10 mM HEPES and 400 μg/mL G418. Cells were grown to 50%-80% confluency prior to harvesting. Trypsinized cells were washed, allowed to recover for 1 hour and then resuspended in extracellular recording solution at a concentration of 1×10^6 cells/ml. The onboard liquid handling facility of the PatchXpress was used for dispensing cells and applying test compounds. INa amplitude and stability were determined by analyzing the peak current amplitude.
# (§2) Peak INa was evoked by depolarizing steps to 0 mV for 20 ms from a holding potential which evoked half-inactivation (e.g., −60 mV) at a frequency of 0.1 Hz. The voltage of half-inactivation was determined for each cell using a 5 sec prepulse to membrane potentials between −120 mV and −20 mV followed immediately by a voltage step to a fully activating membrane voltage (e.g., 0 mV). Following steady state block with exemplary compounds (e.g., as described herein), the degree of inhibition was measured using the average of three consecutive voltage steps. Percent steady-state inhibition of INa was calculated as: [(INa_compound)/(INa_control)]*100, where INa_compound and INa_control represent INa recorded in the presence or absence of compound, respectively.
# (§3) In this table, “A” indicates inhibition between less than 0% to 50% and “B” indicates inhibition of greater than 50% and N/A indicates the compound was not tested.
# hNaV1.7-WT = molecular target: T3, hNaV1.7-WT (Homo sapiens, UniProt Q15858); test: as above; format: cell-based; conditions: HEK293; percent inhibition measured at 1 μM; step to 0 mV from half-inactivation holding potential
# T3 construct: expressed in transfected cells; host or cells: HEK-293
# Method: as §1, §2, §3
# hNaV1.6-WT = molecular target: T4, hNaV1.6-WT (Homo sapiens, UniProt Q9UQD0); test: as above; format: cell-based; conditions: HEK293; percent inhibition measured at 1 μM; step to 0 mV from half-inactivation holding potential
# T4 construct: expressed in transfected cells; host or cells: HEK-293
# Method: as §1, §2, §3
# hNaV1.8-WT = molecular target: T5, hNaV1.8-WT (Homo sapiens, UniProt Q9Y5Y9); test: as above; format: cell-based; conditions: HEK293; percent inhibition measured at 1 μM; step to 0 mV from half-inactivation holding potential
# T5 construct: expressed in transfected cells; host or cells: HEK-293
# Method: as §1, §2, §3
# hNaV1.2-WT = molecular target: T6, hNaV1.2-WT (Homo sapiens, UniProt Q99250); test: as above; format: cell-based; conditions: percent inhibition measured at 1 μM; step to 0 mV from half-inactivation holding potential
# T6 construct: expressed in transfected cells; host or cells: HEK-293
# Method: as §1, §2, §3
# hNaV1.5-WT = molecular target: T7, hNaV1.5-WT (Homo sapiens, UniProt Q14524); test: as above; format: cell-based; conditions: HEK293; percent inhibition measured at 1 μM; step to 0 mV from half-inactivation holding potential
# T7 construct: expressed in transfected cells; host or cells: HEK-293
# Method: as §1, §2, §3
# hNaV1.6-N984K = molecular target: T8, hNaV1.6-N984K (Homo sapiens, UniProt Q9UQD0, N984K); test: Voltage ramp activated sodium current (Ramp INa), PatchXpress, HEK-293; format: cell-based; conditions: HEK293; percent inhibition of enhanced ramp current at 1 μM; +600 mv/sec ramp from −100 mV to +20 mV
# T8 construct: expressed in transfected cells; host or cells: HEK-293
# Method: as §1
# (§4) The Nav1.6 mutant channels (hNaV1.6-R223G, hNaV1.6-N984K, hNaV1.6-N1768D) express an enhanced sodium current in response to a ramp voltage depolarization when compared to the wild-type hNaV1.6-WT. This enhanced, depolarizing ramp current is thought to contribute to enhanced neuronal excitability. The degree of block with exemplary compounds (e.g., as described herein) was measured using a +600 mv/sec voltage ramp from −100 mV to +20 mV. The ramp current was defined as the area of the current measured between −55 mV and +15 mV. Following steady state block with exemplary compounds (e.g., as described herein) at 1 μM, a Na^+ free solution containing an impermeant cation (e.g., Choline or NMDG) was added for determination of the baseline current level for offline subtraction. Percent inhibition of enhanced ramp current was calculated as (compound−baseline)/(control−baseline)*100, where control represents the ramp current recorded in the absence of compound. In this table, “A” indicates inhibition between less than 0% to 50% and “B” indicates inhibition of greater than 50% and N/A indicates the compound was not tested.
# hNaV1.6-N1768D = molecular target: T9, hNaV1.6-N1768D (Homo sapiens, UniProt Q9UQD0, N1768D); test: as above; format: cell-based; conditions: HEK293; percent inhibition of enhanced ramp current at 1 μM; +600 mv/sec ramp from −100 mV to +20 mV
# T9 construct: expressed in transfected cells; host or cells: HEK-293
# Method: as §1, §4
# hNaV1.6-R223G = molecular target: T10, hNaV1.6-R223G (Homo sapiens, UniProt Q9UQD0, R223G); test: as above; format: cell-based; conditions: HEK293; percent inhibition of enhanced ramp current at 1 μM; +600 mv/sec ramp from −100 mV to +20 mV
# T10 construct: expressed in transfected cells; host or cells: HEK-293
# Method: as §1, §4
# human NaV1.6 (hNaV1.6) = molecular target: T11, human NaV1.6 (hNaV1.6) (Homo sapiens, UniProt Q9UQD0); test: Modulation of late sodium current (INaL), PatchXpress electrophysiology, HEK-293 cells expressing hNaV1.6; format: cell-based; conditions: HEK293, late current evoked by 300 nM ATX-II, read-out: NaV 1.6 Assay Data: percent inhibition of INaL at hNaV1.6
# T11 construct: expressed in transfected cells; host or cells: HEK-293
# In short: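 PatchXpress automated patch clamp on HEK-293 cells expressing recombinant hNaV1.6; late current enhanced with 300 nM ATX-II. INaL evoked by 200 ms steps to 0 mV from about −120 mV at 0.1 Hz, measured as mean amplitude over the final 20 ms. Percent steady-state inhibition versus control current.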
# T8 sequence (Q9UQD0 whole entry N984K): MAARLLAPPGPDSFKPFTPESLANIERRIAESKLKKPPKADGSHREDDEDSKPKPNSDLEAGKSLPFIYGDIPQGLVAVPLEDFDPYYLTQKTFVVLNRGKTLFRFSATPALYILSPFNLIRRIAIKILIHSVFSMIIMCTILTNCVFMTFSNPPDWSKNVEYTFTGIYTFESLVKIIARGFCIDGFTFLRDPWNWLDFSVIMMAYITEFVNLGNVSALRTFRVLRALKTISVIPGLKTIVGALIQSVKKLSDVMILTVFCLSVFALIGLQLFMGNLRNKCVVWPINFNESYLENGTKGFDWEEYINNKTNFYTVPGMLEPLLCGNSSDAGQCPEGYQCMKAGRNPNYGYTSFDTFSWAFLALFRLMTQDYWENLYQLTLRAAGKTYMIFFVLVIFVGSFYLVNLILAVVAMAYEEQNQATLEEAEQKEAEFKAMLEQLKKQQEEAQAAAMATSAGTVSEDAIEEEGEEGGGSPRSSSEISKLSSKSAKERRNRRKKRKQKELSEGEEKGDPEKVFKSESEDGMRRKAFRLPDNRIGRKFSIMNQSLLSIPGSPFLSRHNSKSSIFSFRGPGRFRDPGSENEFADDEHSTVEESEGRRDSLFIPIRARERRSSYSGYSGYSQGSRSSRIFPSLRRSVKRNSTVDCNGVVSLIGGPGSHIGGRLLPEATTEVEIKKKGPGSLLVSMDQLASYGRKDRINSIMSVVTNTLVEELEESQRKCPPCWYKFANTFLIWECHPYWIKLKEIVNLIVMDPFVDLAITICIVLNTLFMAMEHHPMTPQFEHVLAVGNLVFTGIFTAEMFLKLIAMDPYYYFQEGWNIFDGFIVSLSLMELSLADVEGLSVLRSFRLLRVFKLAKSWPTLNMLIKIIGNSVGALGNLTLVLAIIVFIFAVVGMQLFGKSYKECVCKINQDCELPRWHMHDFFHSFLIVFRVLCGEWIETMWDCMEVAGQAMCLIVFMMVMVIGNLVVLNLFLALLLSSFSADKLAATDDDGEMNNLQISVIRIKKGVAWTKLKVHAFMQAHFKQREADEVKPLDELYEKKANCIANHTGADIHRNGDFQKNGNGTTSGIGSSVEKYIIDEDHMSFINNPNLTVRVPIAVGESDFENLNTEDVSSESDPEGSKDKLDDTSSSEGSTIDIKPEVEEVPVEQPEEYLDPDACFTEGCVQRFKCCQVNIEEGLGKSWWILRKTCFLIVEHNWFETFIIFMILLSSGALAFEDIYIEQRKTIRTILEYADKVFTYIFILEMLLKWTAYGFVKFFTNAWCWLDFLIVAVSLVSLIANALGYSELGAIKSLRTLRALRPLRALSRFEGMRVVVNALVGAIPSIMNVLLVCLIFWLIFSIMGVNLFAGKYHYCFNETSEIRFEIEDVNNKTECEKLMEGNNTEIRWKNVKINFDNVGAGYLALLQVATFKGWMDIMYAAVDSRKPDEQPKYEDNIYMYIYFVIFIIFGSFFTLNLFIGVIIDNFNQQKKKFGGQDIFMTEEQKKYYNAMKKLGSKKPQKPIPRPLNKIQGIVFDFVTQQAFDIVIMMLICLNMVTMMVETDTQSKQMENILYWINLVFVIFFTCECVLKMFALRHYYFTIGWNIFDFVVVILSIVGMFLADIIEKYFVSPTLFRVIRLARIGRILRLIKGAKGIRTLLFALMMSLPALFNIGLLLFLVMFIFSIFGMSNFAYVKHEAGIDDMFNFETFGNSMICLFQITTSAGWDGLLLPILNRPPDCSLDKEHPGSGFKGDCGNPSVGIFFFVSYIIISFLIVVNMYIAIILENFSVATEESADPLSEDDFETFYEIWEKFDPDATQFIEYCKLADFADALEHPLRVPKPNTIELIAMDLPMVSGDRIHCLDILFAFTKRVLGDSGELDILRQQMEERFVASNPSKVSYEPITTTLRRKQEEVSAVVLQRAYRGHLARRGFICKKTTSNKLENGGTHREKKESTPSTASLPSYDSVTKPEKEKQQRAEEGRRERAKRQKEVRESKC
# T3 sequence (Q15858 whole entry): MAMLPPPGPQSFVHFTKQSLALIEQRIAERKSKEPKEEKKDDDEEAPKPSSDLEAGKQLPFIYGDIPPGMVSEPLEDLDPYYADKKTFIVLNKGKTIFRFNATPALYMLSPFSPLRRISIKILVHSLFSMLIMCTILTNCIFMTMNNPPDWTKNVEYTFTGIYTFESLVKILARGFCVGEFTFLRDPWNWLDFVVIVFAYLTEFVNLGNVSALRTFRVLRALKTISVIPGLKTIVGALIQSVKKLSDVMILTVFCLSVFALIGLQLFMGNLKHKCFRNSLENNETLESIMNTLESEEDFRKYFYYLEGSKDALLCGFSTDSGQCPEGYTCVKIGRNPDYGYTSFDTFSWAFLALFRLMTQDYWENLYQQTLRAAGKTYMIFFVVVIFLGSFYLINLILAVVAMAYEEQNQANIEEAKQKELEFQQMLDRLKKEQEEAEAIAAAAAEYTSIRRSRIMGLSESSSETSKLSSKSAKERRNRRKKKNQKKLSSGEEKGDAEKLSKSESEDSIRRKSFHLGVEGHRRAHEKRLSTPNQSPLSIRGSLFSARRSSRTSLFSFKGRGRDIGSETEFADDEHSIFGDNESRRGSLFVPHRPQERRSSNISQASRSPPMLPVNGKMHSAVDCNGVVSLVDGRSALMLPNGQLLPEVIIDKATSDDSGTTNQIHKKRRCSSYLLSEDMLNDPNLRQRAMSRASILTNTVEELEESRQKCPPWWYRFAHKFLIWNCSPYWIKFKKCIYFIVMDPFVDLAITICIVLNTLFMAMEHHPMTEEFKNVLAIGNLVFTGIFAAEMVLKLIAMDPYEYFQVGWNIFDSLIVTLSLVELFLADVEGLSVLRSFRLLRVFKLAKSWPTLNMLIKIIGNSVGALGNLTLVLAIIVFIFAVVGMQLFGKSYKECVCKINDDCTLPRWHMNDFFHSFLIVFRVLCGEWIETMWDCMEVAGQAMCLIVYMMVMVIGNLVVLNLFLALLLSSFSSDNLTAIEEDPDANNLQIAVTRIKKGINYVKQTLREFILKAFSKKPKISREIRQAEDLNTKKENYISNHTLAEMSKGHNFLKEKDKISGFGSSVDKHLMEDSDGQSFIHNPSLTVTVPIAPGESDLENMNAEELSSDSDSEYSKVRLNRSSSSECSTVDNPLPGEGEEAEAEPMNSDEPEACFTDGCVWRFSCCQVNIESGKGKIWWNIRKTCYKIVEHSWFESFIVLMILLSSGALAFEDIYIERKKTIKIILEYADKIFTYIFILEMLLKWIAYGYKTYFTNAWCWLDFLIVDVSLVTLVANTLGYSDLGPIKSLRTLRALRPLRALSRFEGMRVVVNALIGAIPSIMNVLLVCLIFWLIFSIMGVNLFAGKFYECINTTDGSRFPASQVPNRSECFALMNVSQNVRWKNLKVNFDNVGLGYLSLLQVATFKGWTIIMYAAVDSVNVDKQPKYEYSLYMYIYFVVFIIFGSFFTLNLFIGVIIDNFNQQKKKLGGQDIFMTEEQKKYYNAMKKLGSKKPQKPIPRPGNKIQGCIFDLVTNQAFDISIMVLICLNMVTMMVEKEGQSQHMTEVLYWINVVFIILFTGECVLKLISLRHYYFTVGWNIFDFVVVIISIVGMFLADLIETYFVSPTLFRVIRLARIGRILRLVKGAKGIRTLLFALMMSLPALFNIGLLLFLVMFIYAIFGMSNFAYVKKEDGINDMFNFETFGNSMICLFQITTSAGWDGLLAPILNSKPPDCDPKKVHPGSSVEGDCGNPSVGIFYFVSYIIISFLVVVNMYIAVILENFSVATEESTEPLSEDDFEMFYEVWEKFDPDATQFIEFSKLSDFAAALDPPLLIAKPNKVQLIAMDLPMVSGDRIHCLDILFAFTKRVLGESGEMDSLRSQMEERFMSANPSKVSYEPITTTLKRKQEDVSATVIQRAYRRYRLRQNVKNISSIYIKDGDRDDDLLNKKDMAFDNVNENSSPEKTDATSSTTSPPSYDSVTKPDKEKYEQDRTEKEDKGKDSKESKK
# T11 sequence (Q9UQD0 whole entry): as the sequence (Q9UQD0 whole entry N984K) above, with K984N counted along it
# T4 sequence (Q9UQD0 whole entry): as the sequence (Q9UQD0 whole entry N984K) above, with K984N counted along it
# T9 sequence (Q9UQD0 whole entry N1768D): as the sequence (Q9UQD0 whole entry N984K) above, with K984N, N1768D counted along it
# T10 sequence (Q9UQD0 whole entry R223G): as the sequence (Q9UQD0 whole entry N984K) above, with R223G, K984N counted along it
smiles,measurement,setting,value
"COC(F)(F)c1nnc2cnc(-c3cnc(OCC(F)(F)F)c(F)c3)cn12 [Compound 53, 3-[difluoro(methoxy)methyl]-6-[5-fluoro-6-(2,2,2-trifluoroethoxy)-3-pyridyl]-[1,2,4]triazolo[4,3-a]pyrazine]",inhibition at 1 µM,[1],> 70%
same,Mean latency to tonic extension,Male CD-1 mice; 1 mg/kg PO,36.4 s
same,Mean latency to tonic extension,Male CD-1 mice; 3 mg/kg PO,60 s
same,Mean latency to tonic extension,Male CD-1 mice; 10 mg/kg PO,60 s
same,hNav1.1 Peak INa,hNaV1.1-WT,B (inhibition of greater than 50%)
same,inhibition at 1 µM,hNaV1.7-WT,> 50%
same,inhibition at 1 µM,hNaV1.6-WT,> 50%
same,inhibition at 1 µM,hNaV1.8-WT,> 50%
same,hNav1.2 Peak INa,hNaV1.2-WT,A (inhibition between less than 0% to 50%)
same,inhibition at 1 µM,hNaV1.5-WT,> 50%
same,inhibition at 1 µM,hNaV1.6-N984K,< 50%
same,inhibition at 1 µM,hNaV1.6-N1768D,> 50%
same,inhibition at 1 µM,hNaV1.6-R223G,< 50%
same,inhibition at 1 µM,human NaV1.6 (hNaV1.6),> 70%
